According to ChEMBL document CHEMBL1146449, “Trypanocidal flavonoids from Trixis vauthieri” (1997):

Key:
Format in all cases: functional
Set-up in all cases: scale not given: the % may be the effect or the level left
Trypanosoma cruzi [1] = test: Trypanocidal activity against Trypanosoma cruzi Y strain trypomastigotes infected in Swiss albino mouse blood assessed as reduction of parasitemia at 1000 ug/mL after 24 hrs relative to control
Trypanosoma cruzi [2] = test: Trypanocidal activity against Trypanosoma cruzi Y strain trypomastigotes infected in Swiss albino mouse blood assessed as reduction of parasitemia at 31 ug/mL after 24 hrs relative to control
Trypanosoma cruzi [3] = test: Trypanocidal activity against Trypanosoma cruzi Y strain trypomastigotes infected in Swiss albino mouse blood assessed as reduction of parasitemia at 500 ug/mL after 24 hrs relative to control

Row | Compound | Activity (Trypanosoma cruzi [1]) [%] | Activity (Trypanosoma cruzi [3]) [%] | further results
1 | COc1cc(O)c2c(c1)OC(c1ccc(O)cc1)C(O)C2=O (stereo not given) | 0 |  | 
2 | CN(C)c1ccc(C(=C2C=CC(=[N+](C)C)C=C2)c2ccc(N(C)C)cc2)cc1.[Cl-] [GENTIAN VIOLET] |  |  | Activity (Trypanosoma cruzi [2]): 50%
3 | COc1cc(O)c2c(c1)O[C@H](c1ccc(O)cc1)CC2=O [SAKURANETIN] |  | 100 | 
4 | COc1c(OC)c(O)c2c(=O)c(OC)c(-c3ccc(O)cc3)oc2c1OC [CALYCOPTERIN] | 0 |  | 
5 | COc1cc2oc(-c3ccc(O)cc3)c(OC)c(=O)c2c(O)c1OC [PENDULETIN] |  | 86 | 
